Type in all cases: cell-based
The test system of test [1] is ATF4 in thapsigargin stimulated CCRF-CEM cells (PERK). As to the kind of experiment: CCRF-CEM thapsigargin (TG) ATF4 ELISA. Particulars: Homo sapiens, 1 μM thapsigargin. On the procedure: CCRF-CEM leukemia cells (catalog #CCL-116) were obtained from the American Type Culture Collection (ATTC, Manassas, VA). Briefly, cells were grown in RPMI-1640 medium supplemented with 10% heat-inactivated fetal bovine serum (Invitrogen, Carlsbad, CA) and 1% Penicillin/Streptomycin/L-Glutamine at 37° C., 5% CO2, and 95% humidity. Cells were expanded until reaching one million cells per mL at which time they were subcultured or harvested for assay use. One million five hundred thousand cells per well in 1 mL complete growth medium were dispensed into 12-well plates and incubated overnight. A serial dilution of test compound was added and cells were incubated at 37° C., 5% CO2, and 95% for three hours, then 1 μM thapsigargin was added and cells were incubated for an additional hour at 37° C., 5% CO2, and 95%. Cells were lysed then ATF4 levels were measured using an ELISA assay (Proteintech, Rosemont, IL). Absorbance was measured at 450 nm and 544 nM using a Synergy2 or equivalent reader (Biotek, Winooski VT). Data was analyzed using PRISM software (Graphpad, San Diego, CA) to calculate IC50 values.
(ELISA stands for enzyme-linked immunosorbent assay.)

The test system of test [2] is HT-1080 solid tumor spheroids. As to the kind of experiment: Spheroid proliferation assay, HT-1080. The conditions noted are these: Homo sapiens, HT-1080, 120 h; 5 days, FIG. 11C; read-out: inhibition of cell proliferation IC50, single agent. On the procedure: Non Small Cell Lung Cancer (NSCLC) cell lines H358 (catalog #CRL-5807) and H2030 (catalog #CRL-5914), and fibrosarcoma line HT-1080 (catalog […]) were obtained from the American Type Culture Collect (ATTC, Manassas, VA). Cells were grown in RPMI-1640 medium supplemented with 10% heat-inactivated fetal bovine serum and 1% Penicillin/Streptomycin/L-Glutamine (Invitrogen, Carlsbad, CA) at 37° C., 5% CO2, and 95% humidity and maintained at 50-80% confluency until use. 500-1000 cells were plated in 96-well ultra-low attachment plates (Corning, Glendale, AZ) with complete growth media at 80 μL/well and incubated overnight at 37° C., 5% CO2, and 95% humidity to form spheroids. The next day, serial dilutions of test compounds were prepared in complete growth media and 20 μL/well media containing compound titers was added to spheroids in triplicate. Spheroids were then incubated with test compounds for 5 days under the same conditions. At the end of the incubation, spheroids were lysed with 100 μL/well CellTiter-Glo 3D Viability Assay (Promega, Madison, WI) and luminescence was detected using Synergy2 or equivalent reader (Biotek, Winooski, VT). Data was analyzed using GraphPad Prism software (GraphPad, San Diego, CA) to calculate IC50 values.

Test [3] concerns GA-10 Burkitt lymphoma cells. As to the kind of experiment: Cell proliferation, combination with standard of care, GA-10. Particulars: Homo sapiens, with 50 nM dexamethasone, 96 h, FIG. 6C, read-out: inhibition of cell proliferation IC50, combination treatment. On the procedure: H929, RPMI8226, GA-10 and DoHH-2 cells (catalog #CRL-9068) were obtained from the American Type Culture Collection (ATTC, Manassas, VA). H929 Cells were maintained in RPMI-1640 medium supplemented with 20% heat-inactivated fetal bovine serum (catalog #A3840002, ThermoFisher Scientific, Waltham, MA), 1% Penicillin/Streptomycin/L-Glutamine (catalog #10378016, ThermoFisher Scientific, Waltham, MA), and 0.05 mM 2-mercaptoethanol (catalog #21985-023, ThermoFisher Scientific, Waltham, MA). […]
For cell proliferation assay appropriate number of cells (Forty thousand cells for H929. Twenty thousand cells for RPMI8226 and GA-10. Eight thousand cells for DoHH-2) were seeded per well in 200 μL in respective medium were dispensed into a 96-well black clear bottom plate. […] Plates were read on a Synergy2 or equivalent reader (Biotek, Winooski VT) using an excitation of 540 nm and an emission of 600 nm. At the end of the incubation of DoHH-2, cell viability was determined using CellTiter-Glo® assay (Promega, Madison, WI). Luminescence was measured using EnVision MultiLabel Reader (PerkinElmer, Waltham, MA). Data was analyzed using GraphPad Prism software (GraphPad, San Diego, CA) to calculate IC50 values.

Where only a bound is given, the exact number is not on record here.

With `Cn1cc(-c2cccc(NS(=O)(=O)c3cc(Cl)cc(CO)c3Cl)c2F)c2c(N)ncnc21` [Example 2, N-(3-(4-amino-7-methyl-7H-pyrrolo[2,3-d]pyrimidin-5-yl)-2-fluorophenyl)-2,5-dichloro-3-(hydroxymethyl)benzenesulfonamide], the IC50 in test [1] is not above 100 nM; in test [2], 12 nM; in test [3] it was 4 nM.
